Target: T1, MAL^TIR (Homo sapiens, UniProt P58753)
T1 construct: MAL (residues 79–221); 6xHis; made in house; host or cells: E. coli BL21 (DE3)
Assay: T‐Surf phage library (P8 and P3) selection against MAL^TIR, four rounds, NGS read counts
Type: binding
Conditions: for P3_MAL Rank (after) / P3_MAL Rank (before): P3 library; for P8_MAL Rank (after) / P8_MAL Rank (before): P8 library; for Population: 4th round of selection against MAL TIR, share of NGS reads
How it was run: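 Read counts come from NGS of phage pools after the fourth selection round, barcoded by 20-cycle PCR and filtered for quality ≥30. Each round: phage incubated 1 h at RT on immobilised TIR protein (5 µg mL^−1, BSA-blocked), washed, HCl-eluted and amplified in E. coli TG1.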

[1] = selection against MAL, rank after grouping
[2] = selection against MAL, rank before grouping
[3] = selection against MAL TIR, rank by count after grouping
[4] = selection against MAL TIR, rank by count before grouping
[5] = P3_MAL pool: P3 T-Surf phage library
[6] = selection against MAL, rank by count after grouping
[7] = selection against MAL, rank by count before grouping
[8] = P3_MAL: rank by count after grouping
[9] = P3_MAL: rank by count before grouping
[10] = P8_MAL: rank by count after grouping
[11] = P8_MAL: rank by count before grouping
[12] = 4R selection against MAL, rank after grouping
[13] = 4R selection against MAL, rank before grouping

T1 sequence (P58753 79-221): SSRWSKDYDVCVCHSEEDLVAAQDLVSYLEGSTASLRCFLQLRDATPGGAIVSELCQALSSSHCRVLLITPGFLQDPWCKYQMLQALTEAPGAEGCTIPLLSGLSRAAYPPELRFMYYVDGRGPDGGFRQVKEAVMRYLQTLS

RSFRDRLWRHLQLNEK
P3_MAL Rank (after) [1]: 506
P3_MAL Rank (before) [2]: 2575

RSFREGLWRLLELRKQ
P3_MAL Rank (after) [1]: 507
P3_MAL Rank (before) [2]: 2627

RSFVASLFQALANKGI
P8_MAL Rank (after) [3]: 240
P8_MAL Rank (before) [4]: 2178

RSFVAYLFQALANKGI
Population (P8_MAL pool: P8 T-Surf phage library): 0.0034%

RSLRERLWRLLALSKK
P3_MAL Rank (after) [1]: 577
P3_MAL Rank (before) [2]: 2628

RVFLSHLRHHLQAKDH
Population [5]: 0.0124%

RVFLSHPRHHLQAKDP
P3_MAL Rank (after) [6]: 700
P3_MAL Rank (before) [7]: 2346

RWFLDELVKIMERKRT
P8_MAL Rank (after) [3]: 218
P8_MAL Rank (before) [4]: 926

RWFWDKLIYALSRNTH
Rank (after) [8]: 471
Rank (before) [9]: 3228

RYIMPHPQELIQKNS
Rank (after) [8]: 389
Rank (before) [9]: 2337

RYIMPHPQVLSQKKQQ
P3_MAL Rank (after) [6]: 725
P3_MAL Rank (before) [7]: 2329

SAAYDDFWDRLIRMIE
Rank (after) [10]: 173
Rank (before) [11]: 1007

SAFVAPLSEALNQRAL
P3_MAL Rank (after) [12]: 675
P3_MAL Rank (before) [13]: 2980

SDFIQLINLLVKPKII
P8_MAL Rank (after) [1]: 558
P8_MAL Rank (before) [2]: 2443

SEFILQIILWMNPKIV
Rank (after) [10]: 165
Rank (before) [11]: 2449

SEFIQKIILCMNQKIV
Rank (after) [10]: 155
Rank (before) [11]: 2458

SEFIQKIILWLNTKIV
P8_MAL Rank (after) [3]: 203
P8_MAL Rank (before) [4]: 2461

SEFIQKIILWMNLKNQ
P8_MAL Rank (after) [12]: 581
P8_MAL Rank (before) [13]: 2466

SEFIQKIILWMNQQIV
Rank (after) [10]: 441
Rank (before) [11]: 2482

SEFIQKIILWMNQTNV
Rank (after) [10]: 440
Rank (before) [11]: 2473

SEFIQKISLWMNAKIV
Rank (after) [10]: 171
Rank (before) [11]: 2486

SEFIQKITLGMNPKIG
P8_MAL Rank (after) [12]: 673
P8_MAL Rank (before) [13]: 2481

SEFIQKMILWMNTKVV
P8_MAL Rank (after) [6]: 689
P8_MAL Rank (before) [7]: 2438

SEFLGAAEKRAGQSDD
Rank (after) [10]: 481
Rank (before) [11]: 2445

SFFDRLVSVILRDTNV
P8_MAL Rank (after) [6]: 701
P8_MAL Rank (before) [7]: 1441

SFFWNKLRYALTYRPAT
Rank (after) [8]: 437
Rank (before) [9]: 2995

SFFWNKLRYHLPAPQH
P8_MAL Rank (after) [3]: 269
P8_MAL Rank (before) [4]: 2441

SFFWNKLRYHLQAKDH
P3_MAL Rank (after) [1]: 572
P3_MAL Rank (before) [2]: 3010

SFFWNKLRYILPAPNN
P3_MAL Rank (after) [12]: 596
P3_MAL Rank (before) [13]: 3013

SFFWSKLSYHLPAPQH
P3_MAL Rank (after) [1]: 559
P3_MAL Rank (before) [2]: 2991

SFLGHLYNALVQADIH
P8_MAL Rank (after) [12]: 664
P8_MAL Rank (before) [13]: 1452

SFLHFLLFSRPDTEYI
Rank (after) [10]: 413
Rank (before) [11]: 1436

SFLHFLLFSRPETASI
P8_MAL Rank (after) [12]: 642
P8_MAL Rank (before) [13]: 1437

SFLHFLLLSRPETAYI
Rank (after) [10]: 395
Rank (before) [11]: 1438

SFLYTFLITLTHPTTF
P8_MAL Rank (after) [3]: 266
P8_MAL Rank (before) [4]: 1447

SFLYTLLSNLTHPTNF
P8_MAL Rank (after) [3]: 265
P8_MAL Rank (before) [4]: 1449

SFMLKFRTVLHHVHDV
P8_MAL Rank (after) [12]: 583
P8_MAL Rank (before) [13]: 1451

SFYEPQVKMVLRNTTM
P8_MAL Rank (after) [3]: 282
P8_MAL Rank (before) [4]: 1446

SFYERLVRLILRDTTV
Rank (after) [10]: 189
Rank (before) [11]: 1444

SFYWRQVSIILGDPTV
P8_MAL Rank (after) [3]: 249
P8_MAL Rank (before) [4]: 1442

SICREGLWRLLELSKK
P3_MAL Rank (after) [3]: 284
P3_MAL Rank (before) [4]: 3117

SKDYAQSAWALAEHEKR
P3_MAL Rank (after) [12]: 603
P3_MAL Rank (before) [13]: 3225

SKDYAQSAWALEELTK
Population [5]: 0.0436%
Rank (after) [8]: 99
Rank (before) [9]: 99

SLCKNLVTNLIEEFNR
Rank (after) [8]: 456
Rank (before) [9]: 3062

SLFCNKLRYHLPAPQH
P3_MAL Rank (after) [3]: 214
P3_MAL Rank (before) [4]: 3027

SLFLSSRFKDDADLVGQ
Rank (after) [8]: 433
Rank (before) [9]: 3057

SLLKYKEALPQFHSWL
P3_MAL Rank (after) [12]: 586
P3_MAL Rank (before) [13]: 2982

SLLYDHLRCWAFVRF
P8_MAL Rank (after) [1]: 501
P8_MAL Rank (before) [2]: 2512

SLLYDHLRRLGIRAIM
P8_MAL Rank (after) [6]: 700
P8_MAL Rank (before) [7]: 2491

SLLYDYLRCLGIRAIL
Rank (after) [10]: 475
Rank (before) [11]: 2493

SLQYAHLRWLGIRAFL
P8_MAL Rank (after) [3]: 206
P8_MAL Rank (before) [4]: 2523

SLRKKLVRNLIEEFKR
P3_MAL Rank (after) [6]: 688
P3_MAL Rank (before) [7]: 3100

From article PMC11714206, “Massively Parallel Screening of Toll/Interleukin‐1 Receptor (TIR)‐Derived Peptides Reveals Multiple Toll‐Like Receptors (TLRs)‐Targeting Immunomodulatory Peptides” (Advanced Science, 2024)
